Legend:
Format in all cases: cell-based
HASM cells = assay: Human airway smooth muscle cell scratch (migration) assay; details: 24 hours post scratch, 20 ng/mL PDGF, relative to PDGF alone
Description: FIGS. 4A-4F: DFPQ inhibits internalization of the β2AR and protects from agonist induced desensitization in cell and tissue models. FIG. 4A: Effect of DFPQ on agonist-promoted internalization of the β2AR. HEK 293 cells stably expressing FLAG-β2AR were pre-incubated with 0.1% DMSO or 10 μM DFPQ for 30 min and then stimulated with the indicated concentrations of ISO for up to 60 min. Cells were fixed and receptor surface expression was measured by ELISA. […] Cells were lysed and cAMP production was measured by ELISA. […] FIG. 4C: Mouse airway tissue were contracted with 1 μM methacholine for 5 min and then incubated overnight with 1 μM ISO±1 μM DFPQ. Airway slices were washed, re-contracted with methacholine, and incubated with ISO for 1 hour (n=4 bronchioles). Airway contractility was measured by luminal area of bronchioles by microscopy at various times. FIG. 4D: Bar graphs represent normalized ISO-promoted relaxation from methacholine contraction on day 2 of treatment at the 25 min timepoint from 4 tracheal rings. *, p<0.05 FIG. 4E: HASM cells were scratched and incubated overnight in PDGF containing serum free media. Cells were imaged to evaluate migration into the scratched area. FIG. 4F: Densitometric analysis of migration into scratched area (n=3 experiments). ***, p<0.001; **, p<0.01
Cell culture GLOSENSOR™ cells (Promega) were maintained in Dulbecco's modified Eagle's medium (DMEM) containing 10% fetal bovine serum (FBS) and 200 μg/ml Hygromycin B. […]® ADRB2 cells (DiscoveRx) were maintained with the AssayComplete™ Cell Culture kit (DiscoveRx catalog #92-3107G). […] Cells were read every three minutes for 18 minutes on a PolarStar Optima plate reader (BMG) to establish peak signal. ISO was added to each well to a final concentration of 1 μM, and luminescence was determined in kinetic mode at room temperature (23-25° C.). Response was analyzed relative to forskolin (7 μM) and alprenolol (1 μM) as positive and negative controls, respectively. […] Luminescence was determined at room temperature (23-25° C.) on a PolarStar Optima plate reader (BMG). […]

β2AR [1] = biological target: T1, β2AR (Homo sapiens, UniProt P07550); assay: GLOSENSOR cAMP production assay (bias = GloSensor IC50:PathHunter IC50); details: GloSensor IC50:PathHunter IC50 ratio
T1 sequence (P07550 whole entry): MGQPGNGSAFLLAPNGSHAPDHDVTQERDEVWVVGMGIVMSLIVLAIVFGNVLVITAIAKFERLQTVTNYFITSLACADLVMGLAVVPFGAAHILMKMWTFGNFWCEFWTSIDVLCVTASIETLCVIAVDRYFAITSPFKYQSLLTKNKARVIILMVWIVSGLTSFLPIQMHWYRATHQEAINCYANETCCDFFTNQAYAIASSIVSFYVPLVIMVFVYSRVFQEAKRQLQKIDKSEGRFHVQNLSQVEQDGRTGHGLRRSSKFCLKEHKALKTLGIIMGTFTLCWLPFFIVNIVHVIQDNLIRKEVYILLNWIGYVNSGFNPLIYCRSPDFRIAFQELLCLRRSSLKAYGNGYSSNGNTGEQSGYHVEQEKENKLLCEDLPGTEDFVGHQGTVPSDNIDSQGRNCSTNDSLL

β2AR [2] = biological target: T1, β2AR; assay: […] high throughput assay for β-arrestin recruitment to β2AR; details: PathHunter, ISO-promoted β-arrestin2 recruitment
[3] = Table 2, scaffold drawing 253, R1/R2 substituents
[4] = Table 3, scaffold drawing 254, R1/R3 substituents

| SMILES | Arrestin fold bias (β2AR [1]; Table 2) | IC50 (β2AR [2]; [3]) [µM] | Arrestin fold bias (β2AR [1]; Table 3) | IC50 (β2AR [2]; [4]) [µM] | HASM cell migration into scratched area (HASM cells) |
| --- | --- | --- | --- | --- | --- |
| CC(C)NCC(O)c1ccc(O)c(O)c1 (stereo not shown) [ISO, isoproterenol] |  |  |  |  | reduced migration |
| c1ccc2c(NC3CCCCC3)nc(NC3CCCCC3)nc2c1 [cyclohexyl / N/A] | >10 | 4 ± 1 |  |  |  |
| Clc1ccc(Nc2nc(NC3CCCCC3)c3ccccc3n2)cc1Cl [m,p-dichlorophenyl / N/A] | >100 | 3 ± 0.7 |  |  |  |
| Fc1ccc(Nc2nc(NC3CCCCC3)c3cc(Br)ccc3n2)cc1F [m,p-difluorophenyl / 6-bromo] | >900 | 0.03 ± 0.02 |  |  |  |
| Fc1ccc(Nc2nc(NC3CCCCC3)c3cc(Cl)ccc3n2)cc1F [m,p-difluorophenyl / 6-chloro] | >400 | 0.12 ± 0.05 |  |  |  |
| Cc1ccc2nc(Nc3ccc(F)c(F)c3)nc(NC3CCCCC3)c2c1 [m,p-difluorophenyl / 6-methyl] | >45 | 0.36 ± 0.18 |  |  |  |
| Fc1ccc(Nc2nc(NC3CCCCC3)c3cc(C(F)(F)F)ccc3n2)cc1F [m,p-difluorophenyl / 6-trifluoromethyl] | >1000 |  |  |  |  |
| COc1ccc(Nc2nc(NC3CCCCC3)c3ccccc3n2)cc1OC [m,p-dimethoxyphenyl / N/A] | >7 | 14 ± 3 |  |  |  |
| Clc1cccc(CNc2nc(NC3CCCCC3)c3ccccc3n2)c1 [m-chlorobenzyl / N/A] | No | 21 ± 2 |  |  |  |
| Clc1cccc(Nc2nc(NC3CCCCC3)c3ccccc3n2)c1 [m-chlorophenyl / N/A] | >10 | 6 ± 0.8 |  |  |  |
| CC1CCCC(Nc2nc(Nc3cc(Cl)cc(Cl)c3)nc3ccccc23)C1 (stereo not shown) [m-dichlorophenyl / 3-methylcyclohexyl] |  |  | >10 | 8 ± 5 |  |
| OCc1cc(C(O)CNCCCCCCOCCCCc2ccccc2)ccc1O (stereo not shown) [salmeterol] |  |  |  |  | reduced migration |

Further lines, with some results ahead:

| Arrestin fold bias (β2AR [1]; Table 2) | IC50 (β2AR [2]; [3]) [µM] | Arrestin fold bias (β2AR [1]; Table 3) | IC50 (β2AR [2]; [4]) [µM] | SMILES | HASM cell migration into scratched area (HASM cells) |
| --- | --- | --- | --- | --- | --- |
|  |  | No | 30 ± 4 | Clc1cc(Cl)cc(Nc2nc(NCc3ccccc3)c3ccccc3n2)c1 [m-dichlorophenyl / benzyl] |  |
|  |  | ~2 | 9 ± 3 | Clc1cc(Cl)cc(Nc2nc(NC3CCCC3)c3ccccc3n2)c1 [m-dichlorophenyl / cyclopentyl] |  |
| >200 | 0.2 ± 0.05 |  |  | Fc1cc(F)cc(Nc2nc(NC3CCCCC3)c3ccccc3n2)c1 [m-difluorophenyl / N/A] |  |
| ~3 | 3 ± 1 |  |  | FC(F)(F)c1cccc(Nc2nc(NC3CCCCC3)c3ccccc3n2)c1 [m-trifluoromethylphenyl / N/A] |  |
| >100 | 0.8 ± 0.2 |  |  | Clc1ccc(Nc2nc(NC3CCCCC3)c3ccccc3n2)cc1 [p-chlorophenyl / N/A] |  |
| >200 | 0.23 ± 0.07 |  |  | Fc1ccc(Nc2nc(NC3CCCCC3)c3ccccc3n2)cc1 [p-fluorophenyl / N/A] |  |
| ~4 | 8 ± 2 |  |  | Cc1ccc(CNc2nc(NC3CCCCC3)c3ccccc3n2)cc1 [p-methylbenzyl / N/A] |  |
| >100 | 3 ± 0.7 |  |  | c1ccc(Nc2nc(NC3CCCCC3)c3ccccc3n2)cc1 [phenyl / N/A] |  |
